# Source: patent publication US10828315B2 (Madrigal Pharmaceuticals, Inc., priority 2013, dated 2020)
# Test system: HER2
# Assay: HER2 degradation assay with BT-474 cell line (Example 12, FACS)
# Format: cell-based, human
# From the text: HER2 has emerged as a key target for anticancer drugs due to its intrinsic involvement in the phosphatidylinositol-3-kinase-Akt/protein kinase B (PI3K-Akt) and the mitogen-activated protein kinase (MAPK) pathways, both of which suppress apoptosis and promote tumor cell survival, gene transcription, angiogenesis, cellular proliferation, migration, mitosis, and differentiation. The degradation of HER2 is a measure of efficacy of anticancer therapeutics that target Hsp90. Accordingly, the SDC-TRAP molecules of the invention that comprise a binding moiety that binds Hsp90 were tested in the following HER2 degradation assay.
# BT-474 cells (human breast cancer cell line ATCC HTB-20) were obtained from ATCC and seeded into 12-well tissue culture plates at 0.2×10^6/1.8 mL/well. […] Each test compound was titrated in 4-fold dilutions from 5 μM to 78 nM with DMSO and 200 μL of the titration was added to each well of the cell plate. The DMSO final concentration was 0.2%. Cells were incubated overnight at 37° C. in 5% CO2.
# Media was decanted from the plate, cells were washed 1× in PBS. 400 μL trypsin (EDTA) per well was added, and the cells were incubated for 2 to 3 minutes. Cells were collected into FACS tubes containing 1 ml culture medium to neutralize the trypsin and were centrifuged for 5 minutes at 1200 rpm. Supernatant was decanted and the cells were resuspended in 5 μL FITC (anti HER2/nu)/200 μL staining buffer (1×PBS+1% FBS+0.05% Sodium Azide)/tube. Controls were 5 μL IgG isotype control and staining buffer only. Tubes were incubated for 30 minutes in the dark at room temperature. 1 mL staining buffer was added to each tube and the tubes were centrifuged for 6 minutes at 1200 rpm. The supernatant was decanted and 300 μL staining buffer was added to each tube, which was store at 4° C. fpr FACS (cytometer) analysis. The cytometer readout was normalized and the potency of each compound is evaluated with IC50 calculated with XLfit™ software.
row,SMILES,IC50 [nM]
1,"CCc1c2c(nc3ccc(OC(=O)N4CCC(CCN5CCN(c6ccc(-n7c(O)nnc7-c7cc(C(C)C)c(O)cc7O)cc6)CC5)CC4)cc13)-c1cc3c(c(=O)n1C2)COC(=O)C3(O)CC (centres unmarked) [SDC-TRAP-0070, 4,11-diethyl-4-hydroxy-3,14-dioxo-3,4,12,14-tetrahydro-1H-pyrano[3′,4′:6,7]indolizino[1,2-b]quinolin-9-yl 4-(2-(4-(4-(3-(2,4-dihydroxy-5-isopropylphenyl)-5-hydroxy-4H-1,2,4-triazol-4-yl)phenyl)piperazin-1-yl)ethyl)piperidine-1-carboxylate]",263
2,"CCc1c2c(nc3ccc(OC(=O)N4CCN(C(=O)c5cc6cc(-n7c(O)nnc7-c7cc(C(C)C)c(O)cc7O)ccc6n5C)CC4)cc13)-c1cc3c(c(=O)n1C2)COC(=O)C3(O)CC (centres unmarked) [SDC-TRAP-0072, 4,11-diethyl-4-hydroxy-3,14-dioxo-3,4,12,14-tetrahydro-1H-pyrano[3′,4′:6,7]indolizino[1,2-b]quinolin-9-yl 4-(5-(3-(2,4-dihydroxy-5-isopropylphenyl)-5-hydroxy-4H-1,2,4-triazol-4-yl)-1-methyl-1H-indole-2-carbonyl)piperazine-1-carboxylate]",> 5000
3,"CCc1c2c(nc3ccc(OC(=O)N4CCN(Cc5cc6cc(-n7c(O)nnc7-c7cc(C(C)C)c(O)cc7O)ccc6n5C)CC4)cc13)-c1cc3c(c(=O)n1C2)COC(=O)C3(O)CC (centres unmarked) [SDC-TRAP-0073, 4,11-diethyl-4-hydroxy-3,14-dioxo-3,4,12,14-tetrahydro-1H-pyrano[3′,4′:6,7]indolizino[1,2-b]quinolin-9-yl 4-((5-(3-(2,4-dihydroxy-5-isopropylphenyl)-5-hydroxy-4H-1,2,4-triazol-4-yl)-1-methyl-1H-indol-2-yl)methyl)piperazine-1-carboxylate]",478
4,"CCc1c2c(nc3ccc(OC(C)=O)cc13)-c1cc3c(c(=O)n1C2)COC(=O)C3(CC)OC(=O)N1CCN(Cc2ccc(-n3c(O)nnc3-c3cc(C(C)C)c(O)cc3O)cc2)CC1 (centres unmarked) [SDC-TRAP-0074, 9-acetoxy-4,11-diethyl-3,14-dioxo-3,4,12,14-tetrahydro-1H-pyrano[3′,4′:6,7]indolizino[1,2-b]quinolin-4-yl 4-(4-(3-(2,4-dihydroxy-5-isopropylphenyl)-5-hydroxy-4H-1,2,4-triazol-4-yl)benzyl) piperazine-1-carboxylate]",4120
5,"CCc1c2c(nc3ccc(O)cc13)-c1cc3c(c(=O)n1C2)COC(=O)C3(CC)OC(=O)N1CCN(Cc2cc3cc(-n4c(O)nnc4-c4cc(C(C)C)c(O)cc4O)ccc3n2C)CC1 (centres unmarked) [SDC-TRAP-0075, 4,11-diethyl-9-hydroxy-3,14-dioxo-3,4,12,14-tetrahydro-1H-pyrano[3′,4′:6,7]indolizino[1,2-b]quinolin-4-yl 4-((5-(3-(2,4-dihydroxy-5-isopropylphenyl)-5-hydroxy-4H-1,2,4-triazol-4-yl)-1-methyl-1H-indol-2-yl)methyl)piperazine-1-carboxylate]",953
6,"CCc1c2c(nc3ccc(O)cc13)-c1cc3c(c(=O)n1C2)COC(=O)C3(CC)OC(=O)N1CCN(Cc2ccc(-n3c(O)nnc3-c3cc(C(C)C)c(O)cc3O)cc2F)CC1 (centres unmarked) [SDC-TRAP-0079, 4,11-diethyl-9-hydroxy-3,14-dioxo-3,4,12,14-tetrahydro-1H-pyrano[3′,4′:6,7]indolizino[1,2-b]quinolin-4-yl 4-(4-(3-(2,4-dihydroxy-5-isopropylphenyl)-5-hydroxy-4H-1,2,4-triazol-4-yl)-2-fluorobenzyl)piperazine-1-carboxylate]",1430
7,"CCc1c2c(nc3ccc(O)cc13)-c1cc3c(c(=O)n1C2)COC(=O)C3(CC)OC(=O)N1CCN(c2ccc(-n3c(O)nnc3-c3cc(C(C)C)c(O)cc3O)cc2)CC1 (centres unmarked) [SDC-TRAP-0081, 4,11-diethyl-9-hydroxy-3,14-dioxo-3,4,12,14-tetrahydro-1H-pyrano[3′,4′:6,7]indolizino[1,2-b]quinolin-4-yl-4-(4-(3-(2,4-dihydroxy-5-isopropylphenyl)-5-hydroxy-4H-1,2,4-triazol-4-yl)phenyl)piperazine-1-carboxylate]",622
8,"CCc1c2c(nc3ccc(OC(=O)N4Cc5ccc(-n6c(O)nnc6-c6cc(C(C)C)c(O)cc6O)cc5C4)cc13)-c1cc3c(c(=O)n1C2)COC(=O)C3(O)CC (centres unmarked) [SDC-TRAP-0083, 4,11-diethyl-4-hydroxy-3,14-dioxo-3,4,12,14-tetrahydro-1H-pyrano[3′,4′:6,7]indolizino[1,2-b]quinolin-9-yl 5-(3-(2,4-dihydroxy-5-isopropylphenyl)-5-hydroxy-4H-1,2,4-triazol-4-yl)isoindoline-2-carboxylate]",1440
9,"CCc1c2c(nc3ccc(O)cc13)-c1cc3c(c(=O)n1C2)COC(=O)[C@@]3(CC)OC(=O)N(C)CCCN1CCN(Cc2ccc(-n3c(O)nnc3-c3cc(C(C)C)c(O)cc3O)cc2)CC1 [SDC-TRAP-0084, (S)-4,11-diethyl-9-hydroxy-3,14-dioxo-3,4,12,14-tetrahydro-1H-pyrano[3′,4′:6,7]indolizino[1,2-b]quinolin-4-yl (3-(4-(4-(3-(2,4-dihydroxy-5-isopropylphenyl)-5-hydroxy-4H-1,2,4-triazol-4-yl)benzyl)piperazin-1-yl)propyl)(methyl)carbamate]",1130
10,"COc1ccc(/C=C\c2cc(OC)c(OC)c(OC)c2)cc1OC(=O)N1CCN(Cc2ccc(-n3c(O)nnc3-c3cc(C(C)C)c(O)cc3O)cc2)CC1 [SDC-TRAP-0085, (Z)-2-methoxy-5-(3,4,5-trimethoxystyryl)phenyl 4-(4-(3-(2,4-dihydroxy-5-isopropylphenyl)-5-hydroxy-4H-1,2,4-triazol-4-yl)benzyl) piperazine-1-carboxylate]",889
11,"CCc1c2c(nc3ccc(OC(=O)N4CCC(CCc5ccc(-n6c(O)nnc6-c6cc(C(C)C)c(O)cc6O)cc5)CC4)cc13)-c1cc3c(c(=O)n1C2)COC(=O)[C@]3(O)CC [SDC-TRAP-0086, (S)-4,11-diethyl-4-hydroxy-3,14-dioxo-3,4,12,14-tetrahydro-1H-pyrano[3′,4′:6,7]indolizino[1,2-b]quinolin-9-yl 4-(4-(3-(2,4-dihydroxy-5-isopropylphenyl)-5-hydroxy-4H-1,2,4-triazol-4-yl)phenethyl)piperidine-1-carboxylate]",> 5000
12,"CCc1c2c(nc3ccc(O)cc13)-c1cc3c(c(=O)n1C2)COC(=O)[C@@]3(CC)OC(=O)N(C)CCN1CCN(Cc2ccc(-n3c(O)nnc3-c3cc(C(C)C)c(O)cc3O)cc2)CC1 [SDC-TRAP-0087, (S)-4,11-diethyl-9-hydroxy-3,14-dioxo-3,4,12,14-tetrahydro-1H-pyrano[3′,4′:6,7]indolizino[1,2-b]quinolin-4-yl (2-(4-(4-(3-(2,4-dihydroxy-5-isopropylphenyl)-5-hydroxy-4H-1,2,4-triazol-4-yl)benzyl)piperazin-1-yl)ethyl)(methyl)carbamate]",535
13,CCc1c2c(nc3ccc(OC(=O)N4CCC(CN5CCN(Cc6ccc(-n7c(O)nnc7-c7cc(C(C)C)c(O)cc7O)cc6)CC5)CC4)cc13)-c1cc3c(c(=O)n1C2)COC(=O)[C@]3(O)CC [SDC-TRAP-0088],221
14,"CCc1c2c(nc3ccc(OC(=O)N4CCC(N5Cc6ccc(-n7c(O)nnc7-c7cc(C(C)C)c(O)cc7O)cc6C5)CC4)cc13)-c1cc3c(c(=O)n1C2)COC(=O)[C@]3(O)CC [SDC-TRAP-0089, (S)-4,11-diethyl-4-hydroxy-3,14-dioxo-3,4,12,14-tetrahydro-1H-pyrano[3′,4′:6,7]indolizino[1,2-b]quinolin-9-yl 4-(5-(3-(2,4-dihydroxy-5-isopropylphenyl)-5-hydroxy-4H-1,2,4-triazol-4-yl)isoindolin-2-yl)piperidine-1-carboxylate]",1470
